Some results are limits rather than exact numbers.

Series [1] has as its target Glutamate receptor ionotropic, NMDA 1 (Homo sapiens, UniProt Q05586). In words: Compound was evaluated for its binding affinity for the glycine binding site on N-methyl-D-aspartate glutamate receptor by using [3H]MDL-105519 binding assay.
The species entered for series [2] is Mus musculus. Kind of series: Biodistribution of the injected compound in kidneys of female BALB/C mice for 2.5 hours. It is filed as ADME, organism-based, Kidney. The note with it: in vivo.
Series [3] is filed under the species Mus musculus. Kind of series: Biodistribution of the injected compound in brain of female BALB/C mice for 5 hours. It is filed as ADME, organism-based. The note with it: in vivo.
For series [4], the species on record is Mus musculus. Kind of series: Biodistribution of the injected compound in kidneys of female BALB/C mice for 0.5 hours. It counts as ADME, organism-based, Kidney. The note with it: in vivo.
For series [5], the species on record is Mus musculus. In words: Biodistribution of the injected compound in spleen of female BALB/C mice for 2.5 hours. As to conditions: in vivo. It counts as ADME, organism-based.
For series [6], the species on record is Mus musculus. In words: Biodistribution of the injected compound in lung of female BALB/C mice for 5 hours. It is filed as ADME, organism-based. As to conditions: in vivo.
For series [7], the species on record is Mus musculus. Kind of series: Biodistribution of the injected compound in lung of female BALB/C mice for 0.5 hours. The note with it: in vivo. It is filed as ADME, organism-based.
The species entered for series [8] is Mus musculus. Kind of series: Biodistribution of the injected compound in brain of female BALB/C mice for 2.5 hours. As to conditions: in vivo. It is filed as ADME, organism-based.
Series [9] is filed under the species Mus musculus. In words: Biodistribution of the injected compound in blood of female BALB/C mice for 2.5 hours. It counts as ADME, organism-based. The note with it: in vivo.
Series [10] has as its target Glutamate receptor ionotropic AMPA (Homo sapiens, UniProt P42261+P42262+P42263+P48058). Kind of series: Compound has been evaluated for its binding affinity towards Ionotropic glutamate receptor AMPA by displacing the radioligand [3H]AMPA. It counts as protein-complex assay.
For series [11], the species on record is Mus musculus. Kind of series: Biodistribution of the injected compound in spleen of female BALB/C mice for 5 hours. It counts as ADME, organism-based. The note with it: in vivo.
Series [12] is filed under the species Mus musculus. In words: Biodistribution of the injected compound in muscle of female BALB/C mice for 2.5 hours. As to conditions: in vivo. It counts as ADME, organism-based, Muscle tissue.
Series [13] is filed under the species Mus musculus. In words: Biodistribution of the injected compound in spleen of female BALB/C mice for 0.5 hours. The note with it: in vivo. It counts as ADME, organism-based.
The species entered for series [14] is Mus musculus. Kind of series: Biodistribution of the injected compound in muscle of female BALB/C mice for 0.5 hours. It counts as ADME, organism-based, Muscle tissue. The note with it: in vivo.
For series [15], the species on record is Mus musculus. In words: Biodistribution of the injected compound in bone of female BALB/C mice for 0.5 hours. It counts as ADME, organism-based, Bone element. As to conditions: in vivo.
The species entered for series [16] is Mus musculus. Kind of series: Biodistribution of the injected compound in kidneys of female BALB/C mice for 5 hours. It counts as ADME, organism-based, Kidney. As to conditions: in vivo.
For series [17], the species on record is Mus musculus. In words: Biodistribution of the injected compound in stomach of female BALB/C mice for 0.5 hours. It is filed as ADME, organism-based. As to conditions: in vivo.
Series [18] is filed under the species Mus musculus. Kind of series: Biodistribution of the injected compound in intestines of female BALB/C mice for 5 hours. It is filed as ADME, organism-based, Intestine. The note with it: in vivo.
The species named for series [19] is Mus musculus. In words: Biodistribution of the injected compound in liver of female BALB/C mice for 5 hours. It counts as ADME, organism-based. As to conditions: in vivo.
For series [20], the species on record is Mus musculus. Kind of series: Biodistribution of the injected compound in heart of female BALB/C mice for 5 hours. It is filed as ADME, organism-based. The note with it: in vivo.
In series [21] the target is Glutamate [NMDA] receptor. In words: Compound has been evaluated for its binding affinity towards N-methyl-D-aspartate glutamate receptor by displacing the radioligand [3H]CGP-39653. It is filed as protein-complex assay.
For series [22], the species on record is Mus musculus. Kind of series: Biodistribution of the injected compound in bone of female BALB/C mice for 5 hours. The note with it: in vivo. It is filed as ADME, organism-based, Bone element.
The species named for series [23] is Mus musculus. In words: Biodistribution of the injected compound in lung of female BALB/C mice for 2.5 hours. It counts as ADME, organism-based. As to conditions: in vivo.
The species named for series [24] is Mus musculus. Kind of series: Biodistribution of the injected compound in blood of female BALB/C mice for 0.5 hours. It counts as ADME, organism-based. The note with it: in vivo.
Series [25] addresses Glutamate [NMDA] receptor. In words: Compound has been evaluated for its binding affinity towards N-methyl-D-aspartate glutamate receptor by displacing the radioligand [3H]MK-801. It is filed as protein-complex assay.
Series [26] can be described thus: Octanol/water distribution coefficient at pH 3. It counts as physicochemical.
Series [27] is filed under the species Mus musculus. Kind of series: Biodistribution of the injected compound in stomach of female BALB/C mice for 2.5 hours. It counts as ADME, organism-based. The note with it: in vivo.
The species entered for series [28] is Mus musculus. Kind of series: Biodistribution of the injected compound in stomach of female BALB/C mice for 5 hours. It is filed as ADME, organism-based. The note with it: in vivo.
The species named for series [29] is Mus musculus. Kind of series: Biodistribution of the injected compound in intestines of female BALB/C mice for 0.5 hours. It is filed as ADME, organism-based, Intestine. The note with it: in vivo.
Series [30] can be described thus: Octanol/water distribution coefficient at pH 5.5. It is filed as physicochemical.
For series [31], the species on record is Mus musculus. Kind of series: Biodistribution of the injected compound in liver of female BALB/C mice for 0.5 hours. It counts as ADME, organism-based. The note with it: in vivo.
The species entered for series [32] is Mus musculus. Kind of series: Biodistribution of the injected compound in liver of female BALB/C mice for 2.5 hours. It is filed as ADME, organism-based. The note with it: in vivo.
For series [33], the species on record is Mus musculus. Kind of series: Biodistribution of the injected compound in intestines of female BALB/C mice for 2.5 hours. It counts as ADME, organism-based, Intestine. As to conditions: in vivo.
Series [34] is filed under the species Mus musculus. Kind of series: Biodistribution of the injected compound in brain of female BALB/C mice for 0.5 hours. It is filed as ADME, organism-based. The note with it: in vivo.
Series [35] in a line: Octanol/water distribution coefficient at pH 7.4. It counts as physicochemical.
For series [36], the species on record is Mus musculus. In words: Biodistribution of the injected compound in heart of female BALB/C mice for 0.5 hours. The note with it: in vivo. It counts as ADME, organism-based.
Series [37] in a line: Octanol/water distribution coefficient at pH 4. It is filed as physicochemical.
A short description of series [38]: Octanol/water distribution coefficient at pH 7.5. It is filed as physicochemical.
Series [39] in a line: Octanol/water distribution coefficient at pH 6.5. It is filed as physicochemical.
For series [40], the species on record is Mus musculus. Kind of series: Biodistribution of the injected compound in blood of female BALB/C mice for 5 hours. The note with it: in vivo. It counts as ADME, organism-based.
Series [41] in a line: Octanol/water distribution coefficient at pH 4.8. It counts as physicochemical.
For series [42], the species on record is Mus musculus. In words: Biodistribution of the injected compound in heart of female BALB/C mice for 2.5 hours. As to conditions: in vivo. It is filed as ADME, organism-based.
The species entered for series [43] is Mus musculus. Kind of series: Biodistribution of the injected compound in muscle of female BALB/C mice for 5 hours. It counts as ADME, organism-based, Muscle tissue. As to conditions: in vivo.
For series [44], the species on record is Mus musculus. In words: Biodistribution of the injected compound in bone of female BALB/C mice for 2.5 hours. The note with it: in vivo. It counts as ADME, organism-based, Bone element.
Series [45] has as its system Mus musculus. Kind of series: Effective dose of the intravenously administered compound, protecting the mice in the maximal electroshock test. As to conditions: iv. It is filed as functional.
The target in series [46] is Glutamate receptor ionotropic kainate. In words: Compound has been evaluated for its binding affinity towards kainate by displacing the radioligand [3H]kainate. It counts as protein-complex assay.
For series [47], the system named is Mus musculus. In words: Percent protection offered by the compound (10 mg/kg) in maximal electroshock test in mice, 60 min after intravenous administration. It is filed as functional. (The maximal electroshock test induces tonic seizures with an electrical stimulus.)
Series [48] deals with Glutamate receptor ionotropic kainate (Homo sapiens) (UniProt P39086+Q16478+Q16099+Q13002+Q13003). In words: Inhibition of binding of [3H]kainate to kainate at 10 uM compound concentration. It counts as protein-complex assay.

What is called IC50 is the concentration at which inhibition is half-maximal. Lower therefore signals higher potency. Turning to `C[C@@H](NCc1cc(Cl)cc2nc(O)c(O)nc12)P(=O)(O)O`, the IC50 in series [1] was 6 nM.

The logD is lipophilicity at a set pH, counting ionised and neutral species. Low values mean a more hydrophilic compound, high ones a more lipophilic compound. Turning to `C[C@@H](NCc1cc(I)cc2[nH]c(=O)c(=O)[nH]c12)P(=O)(O)O`, the Injected dose/g tissue was determined as 3.29% in series [2]; 0.01% in series [3]; 6.68% in series [4]; 0.23% in [5]; 0.38% in series [6]; 0.96% in [7]. Further, the Injected dose/g tissue was 0.01% in series [8]; 0.54% in [9]; 0.21% in series [11]; 0.21% in series [12]; 0.46% in [13]; 0.4% in [14]. For the same molecule, the Injected dose/g tissue in series [15] was 1.46%; in [16], 2.98%; in [17], 0.58%; in [18] it was 0.2%; in [19], 0.43%; in series [20], 0.82%. Also, the Injected dose/g tissue in [22] turned out to be 0.78%; in series [23], 0.4%; in [24] it was 1.1%; in [27], 0.23%; in series [28], 0.22%; in series [29], 0.44%. The Injected dose/g tissue in [31] came to 0.92%; in [32], 0.49%; in series [33] it was 0.22%; in series [34] it was 0.03%; in [36] it was 1.34%; in series [40], 0.49%. Further, the values for the Injected dose/g tissue in [42], in series [43] and in [44] were 0.93%, 0.19% and 0.92%, respectively. Further, the IC50 in [10] was 340 nM; in series [1] it was 8 nM; in series [21], over 10000 nM; in [25], over 10000 nM. Moreover, the logD in series [26] is -0.8; in series [30], -1.6; in [35], -2.5; in [37] it was -1.2; in series [38], -1.8; in series [39] it was -1.7. Also, the logD in series [41] is -1.5.

`C[C@@H](NCc1cc(C(F)(F)F)cc2[nH]c(=O)c(=O)[nH]c12)P(=O)(O)O` registered an IC50 in [1] of 8 nM.

In turn, `C[C@@H](NCc1cc(C#N)cc2[nH]c(=O)c(=O)[nH]c12)P(=O)(O)O` yielded an IC50 in series [1] of 76 nM.

In the case of `C[C@@H](NCc1cc([N+](=O)[O-])cc2[nH]c(=O)c(=O)[nH]c12)[P+]([O-])(O)O`, the IC50 in [1] stood at 32 nM.

For `C[C@@H](NCc1cc(F)cc2[nH]c(=O)c(=O)[nH]c12)P(=O)(O)O`, the IC50 in series [1] was found to be 9 nM.

What is called ED50 is the midpoint of the dose-response relation. Low readings indicate an effect at a small dose, high ones a need for a large dose. Regarding `C[C@@H](NCc1cc(Br)cc2nc(O)c(O)nc12)P(=O)(O)O`, the IC50 in series [10] is 3000 nM; in [1], 5 nM; in series [21], over 10000 nM; in series [46], 2700 nM; in [25] it was over 10000 nM. For the same molecule, it took a dose of 5 mg/kg to reach the 50% effect level in [45] (ED50). For the same molecule, in series [47], the Protection was 60%.

The inhibition is how much of the control response was suppressed. `C[C@@H](NCc1cc(I)cc2nc(O)c(O)nc12)P(=O)(O)O` had an inhibition in series [48] of 49%. In series [45], the 50% effect level (ED50) was put at a dose of 10 mg/kg. Moreover, in [47], the Protection stood at 20%.

(Values after ChEMBL document CHEMBL1132861, “Synthesis, radiolabelling and biological characterization of (D)-7-iodo-N-(1-phosphonoethyl)-5-aminomethylquinoxaline-2,3-dione, a glycine-binding site antagonist of NMDA receptors” (Bioorg Med Chem Lett, 2000).)
